System: IgE production against ovalbumin (OVA)
Test: Suppressive effect on the IgE production against ovalbumin (OVA); anti-OVA IgE antibody titer (PCA titer)
Assay type: in vivo
Conditions: BALB/c mice immunized with OVA; oral dose 40 mg/kg for 10 days; titer = n where serum PCA-positive till 2^n dilution
Protocol: Suppressive Effect on the IgE Production Against Ovalbumin (OVA)
BALB/c mice (female, 8-10 weeks old) and Wistar rats (female, 8-10 weeks old) which were bought from Japan SLC, Inc. (Shizuoka) were used.
BALB/c mice were immunized by an intraperitoneal administration of 0.2 ml suspension of 2 μg of ovalbumin (OVA) and 2 mg of aluminium hydroxide gel in physiological saline. After 10 days, blood was collected from hearts, then sera were separated and stocked at −40° C. till the measurement of IgE antibody titer.
After the compound of the present invention was dissolved or suspended in N,N-dimethylacetoamide, the mixture was diluted 20 times with miglyol 812 neutral oil. The obtained solution was orally administered to mice at 0.1 ml per mouse (dose 40 mg/kg). The administration was continued for 10 days from the immunizing day to the day before the blood collection.
4) Mesurement of Anti-OVA IgE Antibody Titer (PCA Titer)
The obtained mouse serum was 2-fold diluted with physiological saline, then each 50 μl the solution was intradermally injected at dorsal skin of Wistar rats which previously hair cut. […] The rats were sacrified 30 minutes later and the highest dilution giving bluing with a diameter of 5 mm or more was recorded as the PCA titer. […]

## Cc1c(C)c(-c2ccc(NC(C)C)nc2)c(C)c(C)c1-c1ccc(NC(C)C)nc1 [Compound 169]
  PCA (anti-OVA IgE antibody titer, PCA titer): <0
